Results taken from patent US6949544B2, “Inhibitors of c-Jun N-terminal kinases (JNK) and other protein kinases” (Vertex Pharmaceuticals Incorporated, priority 2001, dated 2005).

Experiments:
Type in all cases: biochemical
activated JNK3 = target: T1, activated JNK3 (Homo sapiens, UniProt P53779); assay: JNK inhibition assay (spectrophotometric coupled-enzyme assay); details: 10 nM activated JNK3, 10 μM ATP; read-out: Activity in the JNK3 Inhibition Assay (Ki rating A-C)
T1 construct: One such construct encodes amino acid residues Ser40-Glu402 of JNK3α1 and is preceded by Met and Gly residues; Met-Gly (initiator methionine and added glycine) (N); made in house; host or cells: E. coli BL21 (DE3)
T1 sequence (P53779 40-402): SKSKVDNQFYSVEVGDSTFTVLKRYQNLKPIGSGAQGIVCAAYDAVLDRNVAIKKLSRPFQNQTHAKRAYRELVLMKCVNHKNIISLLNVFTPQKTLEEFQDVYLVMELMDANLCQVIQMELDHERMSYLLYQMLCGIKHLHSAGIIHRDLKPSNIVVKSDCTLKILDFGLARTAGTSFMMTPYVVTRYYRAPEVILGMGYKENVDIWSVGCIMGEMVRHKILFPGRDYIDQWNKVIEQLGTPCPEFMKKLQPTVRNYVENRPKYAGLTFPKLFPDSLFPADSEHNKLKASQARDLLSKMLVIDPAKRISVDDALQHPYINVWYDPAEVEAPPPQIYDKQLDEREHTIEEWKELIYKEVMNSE
Excerpt: A BLAST search of the EST database using the published JNK3α1 cDNA as a query identified an EST clone (#632588) that contained the entire coding sequence for human JNK3α1. Polymerase chain reactions (PCR) using pfu polymerase (Strategene) were used to introduce restriction sites into the cDNA for cloning into the pET-15B expression vector at the NcoI and BamHI sites. The protein was expressed in E. coli. […] This truncation corresponds to Ser 2 of JNK1 and JNK2 proteins, and is preceded by a methionine (initiation) and a glycine residue. The glycine residue was added in order to introduce an NcoI site for cloning into the expression vector. In addition, systematic C-terminal truncations were performed by PCR to identify a construct that give rise to diffraction-quality crystals.
5 mg of JNK3 was diluted to 0.5 mg/ml in 50 mM HEPES buffer, pH 7.5, containing 100 mM NaCl, 5 mM DTT, 20 mM MgCl2 and 1 mM ATP. GST-MKK7(DD) was added at a molar ratio of 1:2.5 GST-MKK7:JNK3. After incubation for 30 minutes at 25° C., the reaction mixture was concentrated 5-fold by ultrafiltration in a Centriprep-30 (Amicon, Beverly, Mass.), diluted to 10 ml and an additional 1 mM ATP added. This procedure was repeated three times to remove ADP and replenish ATP. The final addition of ATP was 5 mM and the mixture incubated overnight at 4° C.
The activated JNK3/GST-MKK7(DD) reaction mixture was exchanged into 50 mM HEPES buffer, pH 7.5, containing 5 mM DTT and 5% glycerol (w/v) by dialysis or ultrafiltration. The reaction mixture was adjusted to 1.1 M potassium phosphate, pH 7.5, and purified by hydrophobic interaction chromatography (at 25° C.) using a Rainin Hydropore column. […] Activated JNK3 (i.e. doubly phosphorylated JNK3) was stored at −70° C. at 0.25-1 mg/ml.
Compounds were assayed for the inhibition of JNK3 by a spectrophotometric coupled-enzyme assay. In this assay, a fixed concentration of activated JNK3 (10 nM) was incubated with various concentrations of a potential inhibitor dissolved in DMSO for 10 minutes at 30° C. in a buffer containing 0.1 M HEPES buffer, pH 7.5, containing 10 mM MgCl2, 2.5 mM phosphoenolpyruvate, 200 μM NADH, 150 μg/mL pyruvate kinase, 50 μg/mL lactate dehydrogenase, and 200 μM EGF receptor peptide. […] The reaction was initiated by the addition of 10 μM ATP and the assay plate is inserted into the spectrophotometer's assay plate compartment that was maintained at 30° C. The decrease of absorbance at 340 nm was monitored as a function of time. The rate data as a function of inhibitor concentration was fitted to competitive inhibition kinetic model to determine the Ki.

CDK-2/Cyclin A = CDK-2/Cyclin A (Homo sapiens, UniProt P24941); assay: CDK2 inhibition assay (standard coupled enzyme assay); details: 25 nM CDK-2/Cyclin A; read-out: CDK2 Inhibitory Activity (Ki rating A-C)
Procedure: Compounds were screened in the following manner for their ability to inhibit CDK2 using a standard coupled enzyme assay (Fox et al (1998) Protein Sci 7, 2249).
To an assay stock buffer solution containing 0.1M HEPES 7.5, 10 mM MgCl2, 1 mM DTT, 25 mM NaCl, 2.5 mM phosphoenolpyruvate, […], […], […], […], and 100 μM peptide ([…], American Peptide, Sunnyvale, Calif.) was added a DMSO solution of a compound of the present invention to a final concentration of 30 μM. The resulting mixture was incubated at 30° C. for 10 minutes.
The reaction was initiated by the addition of 10 μL of CDK-2/Cyclin A stock solution to give a final concentration of 25 nM in the assay. The rates of reaction were obtained by monitoring absorbance at 340 nm over a 5-minute read time at 30° C. using a BioRad Ultramark plate reader (Hercules, Calif.). The Ki values were determined from the rate data as a function of inhibitor concentration.

[1] = target: T2, Lck kinase purified from bovine thymus (Bos taurus, UniProt Q3ZCM0); assay: Lck inhibition assay (33P incorporation into poly Glu-Tyr); details: 10 μM ATP; read-out: Activity in the Lck Inhibition Assay (Ki rating A-C)
T2 construct: Lck kinase purified from bovine thymus; purchased Upstate Biotechnology 14-106; host or cells: bovine thymus (tissue-purified)
T2 sequence (Q3ZCM0 1-509): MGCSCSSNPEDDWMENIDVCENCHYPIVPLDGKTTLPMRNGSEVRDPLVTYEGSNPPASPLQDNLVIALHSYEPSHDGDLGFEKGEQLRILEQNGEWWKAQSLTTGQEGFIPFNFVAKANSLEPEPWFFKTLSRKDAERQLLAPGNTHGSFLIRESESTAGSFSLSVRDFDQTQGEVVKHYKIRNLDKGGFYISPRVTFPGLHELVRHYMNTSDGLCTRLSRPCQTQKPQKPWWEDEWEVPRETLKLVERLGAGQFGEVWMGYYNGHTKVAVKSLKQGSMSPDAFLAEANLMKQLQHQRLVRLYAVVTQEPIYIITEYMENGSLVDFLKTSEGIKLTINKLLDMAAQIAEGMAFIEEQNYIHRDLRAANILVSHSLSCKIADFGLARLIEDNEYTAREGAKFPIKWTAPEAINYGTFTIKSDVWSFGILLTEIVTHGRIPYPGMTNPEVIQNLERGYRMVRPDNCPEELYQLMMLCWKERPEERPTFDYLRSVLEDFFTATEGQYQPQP
Procedure: The compounds were assayed as inhibitors of Lck kinase purified from bovine thymus (from Upstate Biotechnology, cat. no. 14-106). Lck kinase activity was monitored by following the incorporation of ^33P from ATP into the tyrosine of a random poly Glu-Tyr polymer substrate of composition, Glu:Tyr=4:1 (Sigma, cat. no. P-0275). The following were the final concentrations of the assay components: 0.05 M HEPES, pH 7.6, 10 mM MgCl2, 2 mM DTT, 0.25 mg/ml BSA, 10 μM ATP (1-2 μCi ^33P-ATP per reaction), 5 mg/ml poly Glu-Tyr, and 1-2 units of lck kinase. In a typical assay, all the reaction components with the exception of ATP were pre-mixed and aliquoted into assay plate wells. […] The assay plate was incubated at 30° C. for 10 min before initiating the reaction with ^33P-ATP. After 20 min of reaction, the reactions were quenched with 150 μl of 10% trichloroacetic acid (TCA) containing 20 mM Na3PO4. The quenched samples were then transferred to a 96-well filter plate (Whatman, UNI-Filter GF/F Glass Fiber Filter, cat no. 7700-3310) installed on a filter plate vacuum manifold. Filter plates were washed four times with 10% TCA containing 20 mM Na3PO4 and then 4 times with methanol. 200 μl of scintillation fluid was then added to each well. The plates were sealed and the amount of radioactivity associated with the filters was quantified on a TopCount scintillation counter.

Ki (activated JNK3) [nM] | Ki (CDK-2/Cyclin A) [nM] | Ki [1] [nM] | Compound
100 to 1000 | – | – | COc1cc(-c2ccnc(Nc3c(F)cccc3F)c2)cc(OC)c1OC [Compound I-151]
– | – | 100 to 1000 | COc1ccc(-c2ccnc(Nc3ccc([N+](=O)[O-])cc3)n2)c(OC)c1OC [II-4]
100 to 1000 | – | – | COc1cc(-c2ccnc(Nc3ccccc3Cl)c2)cc(OC)c1OC [Compound I-147]
– | – | 100 to 1000 | COc1cccc(-c2cccc(Nc3nccc(-c4ccc(OC)c(OC)c4OC)n3)c2)c1 [II-42]
– | – | 100 to 1000 | COc1ccc(-c2ccnc(Nc3cccc(Cc4ccccc4)c3)n2)c(OC)c1OC [II-27]
– | – | > 1000 | COc1ccc(-c2ccnc(Nc3cccc(Oc4ccccc4)c3)n2)c(OCCN2CCOCC2)c1OC [II-21]
– | – | < 100 | COc1ccc(-c2ccnc(Nc3cccc(Oc4ccncc4)c3)n2)c(OC)c1OC [II-23]
100 to 1000 | – | – | COc1cc(-c2ccnc(Nc3cccc(Cl)c3)c2)cc(OC)c1OC [Compound I-146, (3-Chlorophenyl)-[4-(3,4,5-trimethoxyphenyl)-pyridin-2-yl]-amine]
– | – | < 100 | COc1ccc(Oc2ccccc2)cc1Nc1nccc(-c2ccc(OC)c(OC)c2OC)n1 [II-31]
> 1000 | > 5000 | – | COc1cc(-c2ccnc(Nc3cccc(OCc4ccccc4)c3)n2)cc(OC)c1OC [Compound I-56]
– | – | > 1000 | COc1cc(Oc2ccccc2)nc(Nc2nccc(-c3ccc(OC)c(OC)c3OC)n2)n1 [II-34]
100 to 1000 | – | – | COc1cc(-c2ccnc(Nc3ccccc3)c2)cc(OC)c1OC [Compound I-155]
– | – | < 100 | COc1ccc(-c2ccnc(Nc3cccc(-c4cccc(Cl)c4)c3)n2)c(OC)c1OC [II-39]
– | – | 100 to 1000 | COc1ccc(-c2ccnc(Nc3cccc(OCc4ccccc4)c3)n2)c2c1OCCO2 [II-16]
< 100 | > 5000 | – | COc1c(Cl)cc(-c2ccnc(Nc3cccc(C)c3)n2)cc1Cl [Compound I-55]
> 1000 | – | – | CCc1nnc(Nc2nccc(-c3cc(OC)c(OC)c(OC)c3)n2)s1 [Compound I-84]
100 to 1000 | – | – | COc1cc(-c2ccnc(Nc3cccc(F)c3)c2)cc(OC)c1OC [Compound I-154]
< 100 | > 5000 | – | CCOc1c(OC)cc(-c2ccnc(Nc3cccc(C)c3)n2)cc1OC [Compound I-54]
< 100 | > 5000 | – | COc1cc(-c2ccnc(Nc3cccc(C)c3)n2)cc(OC)c1OCCN1CCOCC1 [Compound I-53]
– | > 5000 | – | COc1ccc(-c2ccnc(Nc3n[nH]c4ccccc34)n2)c(OC)c1OC [II-56]

Further lines, the compound ahead of its results:

Compound | Ki (activated JNK3) [nM] | Ki (CDK-2/Cyclin A) [nM] | Ki [1] [nM]
COc1cc(-c2ccnc(Nc3cccc([N+](=O)[O-])c3)n2)cc(OC)c1OC [Compound I-36] | < 100 | > 5000 | –
COc1cc(-c2ccnc(Nc3cc(C)cc(C)c3)n2)cc(OC)c1OC [Compound I-24] | 100 to 1000 | > 5000 | –
COc1cc(-c2ccnc(Nc3ccccc3C)n2)cc(OC)c1OC [Compound I-7] | 100 to 1000 | > 5000 | –
COc1cc(-c2ccnc(Nc3ccc(C)c(C)c3)n2)cc(OC)c1OC [Compound I-25] | < 100 | – | –
COc1ccc(Nc2nccc(-c3cc(OC)c4c(c3)OCO4)n2)cc1 [Compound I-33] | 100 to 1000 | > 5000 | –
COc1cc(-c2ccnc(Nc3ccc(C)cc3)n2)cc2c1OCO2 [Compound I-28] | 100 to 1000 | – | –
COc1c(Cl)cc(-c2ccnc(Nc3cccc(F)c3)n2)cc1Cl [Compound I-46] | 100 to 1000 | > 5000 | –
COc1cc(-c2ccnc(Nc3ccc(C)cc3)n2)cc(OC)c1OC [Compound I-17] | < 100 | – | –
COc1cccc(Nc2nccc(-c3cc(OC)c4c(c3)OCO4)n2)c1 [Compound I-32] | 100 to 1000 | > 5000 | –
COc1cc(-c2ccnc(Nc3ccccc3)n2)cc2c1OCO2 [Compound I-26, [4-(7-Methoxy-benzo[1,3]dioxol-5-yl)-pyrimidin-2-yl]-phenyl-amine] | 100 to 1000 | > 5000 | –
COc1cc(-c2ccnc(Nc3cccc(F)c3)n2)cc(OC)c1OCCN1CCOCC1 [Compound I-44] | < 100 | > 5000 | –
CCOc1c(OC)cc(-c2ccnc(Nc3cccc(F)c3)n2)cc1OC [Compound I-45] | < 100 | > 5000 | –
COc1cc(-c2ccnc(Nc3cccc(F)c3)n2)cc2c1OCO2 [Compound I-29] | 100 to 1000 | – | –
COc1cc(-c2ccnc(Nc3ccccc3)n2)cc(OC)c1OC [Compound I-15] | < 100 | > 5000 | –
COc1cc(-c2ccnc(Nc3cccc(C(F)(F)F)c3)n2)cc2c1OCO2 [Compound I-31] | > 1000 | – | –
COc1cc(-c2ccnc(Nc3cccc(Cl)c3)n2)cc2c1OCO2 [Compound I-30] | > 1000 | – | –
COc1cc(-c2ccnc(Nc3cccc(C(F)(F)F)c3)n2)cc(OC)c1OC [Compound I-19] | < 100 | > 5000 | –
COc1cc(-c2ccnc(Nc3c(C)cccc3C)n2)cc(OC)c1OC [Compound I-8] | > 1000 | > 5000 | –
COc1cc(-c2ccnc(Nc3cccc(C)c3)n2)cc2c1OCO2 [Compound I-27] | > 1000 | – | –
COc1cc(-c2ccnc(Nc3c(F)cccc3F)n2)cc(OC)c1OC [Compound I-2] | 100 to 1000 | > 5000 | –
COc1c(C)cc(-c2ccnc(Nc3cccc(F)c3)n2)cc1C [Compound I-47] | < 100 | – | –
COc1cc(-c2ccnc(Nc3cc(Cl)cc(Cl)c3)n2)cc(OC)c1OC [Compound I-23] | < 100 | > 5000 | –
COc1cc(-c2ccnc(Nc3ccccc3C)n2)cc(OC)c1OC [Compound I-16] | < 100 | > 5000 | –
COc1cc(-c2ccnc(Nc3ccc([N+](=O)[O-])cc3)n2)cc(OC)c1OC [Compound I-11] | < 100 | > 5000 | –
COc1ccc(Nc2nccc(-c3cc(OC)c(OC)c(OC)c3)n2)cc1 [Compound I-21] | < 100 | – | –
COc1cc(-c2ccnc(Nc3ccc(F)cc3)n2)cc(OC)c1OC [Compound I-14] | > 1000 | – | –
CCOc1c(OC)cc(-c2ccnc(Nc3cccc(Cl)c3)n2)cc1OC [Compound I-40] | < 100 | > 5000 | –
